Measured values reported in US20240309322A1, “[…], METHOD FOR MAN[…], AND MA[…] AND MICROGLIA” (KEIO UNIVERSITY, priority 2021, published 2024).

System: SPI1 gene
Experiment: qRT-PCR of SPI1 gene expression on adding doxycycline (PU protocol)
Type: cell-based, human
Method: The expression level at the transcription level can be evaluated through, for example, quantitative reverse transcription PCR (qRT-PCR) using one obtained by reverse-transcribing mRNA prepared from target cells as a template.
In the PU protocol, doxycycline (1 μg/mL) was added to the culture liquid from day 6 to day 18 from the start of culture.
By adding doxycycline, the expression level of the SPI1 gene evaluated through qRT-PCR increased by at least about 50 times compared to a case without doxycycline.

Q: For `C[C@H]1c2cccc(O)c2C(=O)C2=C(O)[C@]3(O)C(=O)C(C(N)=O)=C(O)[C@@H](N(C)C)[C@@H]3[C@@H](O)[C@@H]21` [doxycycline], which “expression level of the SPI1 gene evaluated through qRT-PCR, increase compared to a case without doxycycline” value (doxycycline 1 μg/mL in culture liquid from day 6 to day 18, SPI1-introduced hiPSC-derived cells) is on record?
A: at least 50 times

Q: What about the “expression level of the SPI1 gene with a primer set that selectively amplifies endogenous SPI1 gene” value (regardless of the presence or absence of doxycycline, endogenous SPI1 only) of the same molecule?
A: 1-2 times
